This passage reports CC50, melting point and EC50 results from US20150175608A1, “NOVEL 4-SUBSTITUTED 1,3-DIHYDRO-2H-BENZIMIDAZOL-2-ONE DERIVATIVES SUBSTITUTED WITH BENZIMIDAZOLES AS RESPIRATORY SYNCYTIAL VIRUS ANTIVIRAL AGENTS” (Janssen R&D Ireland, priority 2012, published 2015).

For orientation: CC50 means the concentration giving 50% cytotoxicity. In general, melting point refers to the temperature of the solid-liquid transition. What is called EC50 is the concentration at which the effect is half-maximal.

The nature of one series: in vitro. The following applies: human. In kind it is cell-based. The protocol: (§1) Antiviral Activity Black 96-well clear-bottom microtiter plates (Corning, Amsterdam, The Netherlands) were filled in duplicate using a customized robot system with serial 4-fold dilutions of compound in a final volume of 50 μl culture medium [RPMI medium without phenol red, 10% FBS, 0.04% gentamycin (50 mg/ml) and 0.5% DMSO]. Then, 100 μl of a HeLa cell suspension (5×10^4 cells/ml) in culture medium was added to each well followed by the addition of 50 μl rgRSV224 (MOI=0.02) virus in culture medium using a multidrop dispenser (Thermo Scientific, Erembodegem, Belgium). rgRSV224 virus is an engineered virus that includes an additional GFP gene (Hallak et al, 2000) and was in-licensed from the NIH (Bethesda, Md., USA). Medium, virus- and mock-infected controls were included in each test. Cells were incubated at 37° C. in a 5% CO2 atmosphere. Three days post-virus exposure, viral replication was quantified by measuring GFP expression in the cells by a MSM laser microscope (Tibotec, Beerse, Belgium). The EC50 was defined as the 50% inhibitory concentration for GFP expression. In parallel, compounds were incubated for three days in a set of white 96-well microtiter plates (Corning) and the cytotoxicity of compounds in HeLa cells was determined by measuring the ATP content of the cells using the ATPlite kit (PerkinElmer, Zaventem, Belgium) according to the manufacturer's instructions. The CC50 was defined as the 50% concentration for cytotoxicity.

For the next series, the system named is rgRSV224 virus. Nature of the series: Antiviral activity: rgRSV224 replication (GFP expression) in HeLa cells. It is filed as cell-based. The following applies: human respiratory syncytial virus, 72 h, read-out: WT activity EC50. The method, then:
as §1

With `CS(=O)(=O)CCCn1c(Cn2c(=O)n(C3CC3)c3c(C(F)(F)F)cccc32)nc2cc(Cl)ccc21` [Compound P5, 1-((5-chloro-1-(3-(methylsulfonyl)propyl)-1H-benzo[d]imidazol-2-yl)-methyl)-3-cyclopropyl-4-(trifluoromethyl)-1H-benzo[d]imidazol-2(3H)-one], the melting point came to 210.18 °C. Also, the CC50 at 3 days in “in vitro” is > 100000 nM. Moreover, in the series with rgRSV224 virus, the EC50 amounted to 28 nM.
With `Cc1cccc2c1n(C1CC1)c(=O)n2Cc1nc2cc(Cl)ccc2n1CCCS(C)(=O)=O` [Compound P3, 1-((5-Chloro-1-(3-(methylsulfonyl)propyl)-1H-benzo[d]imidazol-2-yl)-methyl)-3-cyclopropyl-4-methyl-1H-benzo[d]imidazol-2(3H)-one], the cytotoxic concentration (CC50) at 3 days in the series “in vitro” came out at 64600 nM. For the same compound, the half-maximal effective concentration (EC50) in the series on rgRSV224 virus amounted to 5.1 nM.
In the same order, the values of `CS(=O)(=O)CCCn1c(Cn2c(=O)n(C3CC3)c3c(Cl)cncc32)nc2cc(Cl)ccc21` [Compound P1, 7-Chloro-3-((5-chloro-1-(3-(methylsulfonyl)-propyl)-1H-benzo[d]imidazol-2-yl)methyl)-1-cyclopropyl-1H-imidazo[4,5-c]pyridin-2(3H)-one] are > 100000 nM and 1.7 nM.
Take `CS(=O)(=O)CCCn1c(Cn2c(=O)n(CC(F)(F)F)c3c(Cl)cncc32)nc2cc(Cl)ccc21` [Compound P6, 7-chloro-3-((5-chloro-1-(3-(methylsulfonyl)propyl)-1H-benzo[d]imidazol-2-yl)methyl)-1-(2,2,2-trifluoroethyl)-1H-imidazo[4,5-c]pyridin-2(3H)-one]: the melting point was 232.82 °C. Besides, the cytotoxic concentration (CC50) at 3 days in “in vitro” is > 100000 nM. The half-maximal effective concentration (EC50) with rgRSV224 virus amounted to 9 nM.
As for `CS(=O)(=O)CCCn1c(Cn2c(=O)n(CC(F)(F)F)c3c(Cl)cccc32)nc2cc(Cl)ccc21` [Compound P7, 4-chloro-1-((5-chloro-1-(3-(methylsulfonyl)propyl)-1H-benzo[d]imidazol-2-yl)methyl)-3-(2,2,2-trifluoroethyl)-1H-benzo[d]imidazol-2(3H)-one], the half-maximal cytotoxic concentration (CC50) at 3 days in the series “in vitro” was determined as 69000 nM. For the same compound, in the series on rgRSV224 virus, the EC50 was determined as 12 nM.
In the same order, the values of `Cc1cncc2c1n(C1CC1)c(=O)n2Cc1nc2cc(Cl)ccc2n1CCCS(C)(=O)=O` [Compound P4, 3-((5-chloro-1-(3-(methylsulfonyl)propyl)-1H-benzo[d]imidazol-2-yl)methyl)-1-cyclopropyl-7-methyl-1H-imidazo[4,5-c]pyridin-2(3H)-one] are > 100000 nM and 1.4 nM.
In the same order, the values of `CS(=O)(=O)CCCn1c(Cn2c(=O)n(C3CC3)c3c(Cl)cccc32)nc2cc(Cl)ccc21` [Compound P2, 4-Chloro-1-((5-chloro-1-(3-(methylsulfonyl)propyl)-1H-benzo[d]imidazol-2-yl)methyl)-3-cyclopropyl-1H-benzo[d]imidazol-2(3H)-one] are > 100000 nM and 7.4 nM.
